Results published in US12077503B2, “Substituted cyclic amides and their use as herbicides” (FMC CORPORATION, priority 2015, dated 2024).
Read-outs that look alike come from different tables or passages of the source.

Assays:
Assay type in all cases: in vivo
[1] = system: Kochia (Kochia scoparia); assay: Test A preemergence; settings: Bassia scoparia, pre-emergence, 240 h; for pest or weed control at 125 g/ha: 125 g ai/ha, preemergence, 0 to 100 scale where 0 is no effect and 100 is complete control, read-out: Kochia plant response rating; for pest or weed control at 500 g/ha: 500 g ai/ha, Preemergence, visual injury vs untreated controls after approximately 10 d, read-out: Kochia plant response rating (0 to 100 scale where 0 is no effect and 100 is complete control)
In short: (§1)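 Preemergence directed soil spray on seeded pots, or postemergence application to plants 2–10 cm, one- to two-leaf. Solvent mixture non-phytotoxic, with surfactant. Scored ~10 d later, visually, 0–100 vs untreated.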

[2] = system: barnyardgrass (Echinochloa crus-galli); assay: Test A preemergence; settings: Echinochloa crus-galli, pre-emergence, 240 h; for pest or weed control at 125 g/ha: 125 g ai/ha, preemergence, 0 to 100 scale where 0 is no effect and 100 is complete control, read-out: Barnyardgrass plant response rating; for pest or weed control at 500 g/ha: 500 g ai/ha, Preemergence, visual injury vs untreated controls after approximately 10 d, read-out: Barnyardgrass plant response rating (0 to 100 scale where 0 is no effect and 100 is complete control)
In short: as §1

[3] = system: giant foxtail (Setaria faberii); assay: Test A preemergence; settings: Setaria faberi, pre-emergence, 240 h; for pest or weed control at 125 g/ha: 125 g ai/ha, preemergence, 0 to 100 scale where 0 is no effect and 100 is complete control, read-out: Foxtail, Giant plant response rating; for pest or weed control at 500 g/ha: 500 g ai/ha, Preemergence, visual injury vs untreated controls after approximately 10 d, read-out: Foxtail, Giant plant response rating (0 to 100 scale where 0 is no effect and 100 is complete control)
In short: as §1

[4] = system: pigweed (Amaranthus retroflexus); assay: Test A preemergence; settings: Amaranthus retroflexus, pre-emergence, 240 h; for pest or weed control at 125 g/ha: 125 g ai/ha, preemergence, 0 to 100 scale where 0 is no effect and 100 is complete control, read-out: Pigweed plant response rating; for pest or weed control at 500 g/ha: 500 g ai/ha, Preemergence, visual injury vs untreated controls after approximately 10 d, read-out: Pigweed plant response rating (0 to 100 scale where 0 is no effect and 100 is complete control)
[5] = system: ragweed (common ragweed, Ambrosia elatior); assay: Test A preemergence; settings: Ambrosia artemisiifolia, pre-emergence, 240 h; for pest or weed control at 125 g/ha: 125 g ai/ha, preemergence, 0 to 100 scale where 0 is no effect and 100 is complete control, read-out: Ragweed plant response rating; for pest or weed control at 500 g/ha: 500 g ai/ha, Preemergence, visual injury vs untreated controls after approximately 10 d, read-out: Ragweed plant response rating (0 to 100 scale where 0 is no effect and 100 is complete control)
In short: as §1

[6] = system: ryegrass, Italian (Italian ryegrass, Lolium multiflorum); assay: Test A preemergence; settings: Lolium multiflorum, pre-emergence, 240 h; for pest or weed control at 125 g/ha: 125 g ai/ha, preemergence, 0 to 100 scale where 0 is no effect and 100 is complete control, read-out: Ryegrass, Italian plant response rating; for pest or weed control at 500 g/ha: 500 g ai/ha, Preemergence, visual injury vs untreated controls after approximately 10 d, read-out: Ryegrass, Italian plant response rating (0 to 100 scale where 0 is no effect and 100 is complete control)
In short: as §1

[7] = system: Galium (catchweed bedstraw, Galium aparine); assay: Test A postemergence; settings: Galium, post-emergence, 240 h, 125 g ai/ha
In short: as §1

[8] = system: Kochia (Kochia scoparia); assay: Test A postemergence; settings: Bassia scoparia, post-emergence, 240 h, 125 g ai/ha
In short: as §1

[9] = system: barnyardgrass (Echinochloa crus-galli); assay: Test A postemergence; settings: Echinochloa crus-galli, post-emergence, 240 h, 125 g ai/ha
In short: as §1

[10] = system: blackgrass (Alopecurus myosuroides); assay: Test A postemergence; settings: Alopecurus myosuroides, post-emergence, 240 h, 125 g ai/ha
In short: as §1

[11] = system: corn (Zea mays); assay: Test A postemergence; settings: Zea mays, post-emergence, 240 h, 125 g ai/ha; for plant injury at 125 g/ha: postemergence, visual injury rating after approximately 10 d, read-out: Corn plant response rating (0 to 100 scale, 0 no effect, 100 complete control)
In short: as §1

[12] = system: pigweed (Amaranthus retroflexus); assay: Test A postemergence; settings: Amaranthus retroflexus, post-emergence, 240 h, 125 g ai/ha
In short: as §1

[13] = system: ragweed (common ragweed, Ambrosia elatior); assay: Test A postemergence; settings: Ambrosia artemisiifolia, post-emergence, 240 h, 125 g ai/ha
In short: as §1

[14] = system: ryegrass, Italian (Italian ryegrass, Lolium multiflorum); assay: Test A postemergence; settings: Lolium multiflorum, post-emergence, 240 h, 125 g ai/ha
In short: as §1

[15] = system: wheat (Triticum aestivum); assay: Test A postemergence; settings: Triticum aestivum, post-emergence, 240 h, 125 g ai/ha
In short: as §1

[16] = postemergence, visual injury rating after approximately 10 d, read-out: Galium plant response rating (0 to 100 scale, 0 no effect, 100 complete control)
[17] = postemergence, visual injury rating after approximately 10 d, read-out: Kochia plant response rating (0 to 100 scale, 0 no effect, 100 complete control)
[18] = postemergence, visual injury rating after approximately 10 d, read-out: Barnyardgrass plant response rating (0 to 100 scale, 0 no effect, 100 complete control)
[19] = postemergence, visual injury rating after approximately 10 d, read-out: Blackgrass plant response rating (0 to 100 scale, 0 no effect, 100 complete control)
[20] = postemergence, visual injury rating after approximately 10 d, read-out: Pigweed plant response rating (0 to 100 scale, 0 no effect, 100 complete control)
[21] = postemergence, visual injury rating after approximately 10 d, read-out: Ragweed plant response rating (0 to 100 scale, 0 no effect, 100 complete control)
[22] = postemergence, visual injury rating after approximately 10 d, read-out: Ryegrass, Italian plant response rating (0 to 100 scale, 0 no effect, 100 complete control)
[23] = postemergence, visual injury rating after approximately 10 d, read-out: Wheat plant response rating (0 to 100 scale, 0 no effect, 100 complete control)

| SMILES | pest or weed control at 125 g/ha [1] | pest or weed control at 500 g/ha [1] | pest or weed control at 125 g/ha [2] | pest or weed control at 500 g/ha [2] | pest or weed control at 125 g/ha [3] | pest or weed control at 500 g/ha [3] | pest or weed control at 125 g/ha [4] | pest or weed control at 500 g/ha [4] | pest or weed control at 125 g/ha [5] | pest or weed control at 500 g/ha [5] | pest or weed control at 125 g/ha [6] | pest or weed control at 500 g/ha [6] | pest or weed control at 125 g/ha [7, 16] | pest or weed control at 125 g/ha [8, 17] | pest or weed control at 125 g/ha [9, 18] | pest or weed control at 125 g/ha [10, 19] | plant injury at 125 g/ha [11] | pest or weed control at 125 g/ha [12, 20] | pest or weed control at 125 g/ha [13, 21] | pest or weed control at 125 g/ha [14, 22] | further results |
| --- | --- | --- | --- | --- | --- | --- | --- | --- | --- | --- | --- | --- | --- | --- | --- | --- | --- | --- | --- | --- | --- |
| Cc1cc(C)cc([C@H]2CN(C)C(=O)[C@@H]2C(=O)Nc2cccc(F)c2F)c1 [Compound 911] | 90% | 100% | 90% | 100% | 90% | 100% | 20% | 50% | 0% | 60% | 70% | 90% | 40% | 50% | 90% | 50% | 80% | 0% | 0% | 70% | plant injury at 125 g/ha [15, 23]: 50% |
| CCc1cc([C@H]2CNC(=O)[C@@H]2C(=O)Nc2ccccc2F)cs1 [Compound 913] | 0% | 40% | 80% | 90% | 50% | 90% | 0% | 0% | 0% | 60% | 0% | 40% | 30% | 0% | 90% | 0% | 0% | 0% | 30% | 0% | plant injury at 125 g/ha [15, 23]: 0% |
| CN1CC[C@H](c2cccc(Cl)c2)[C@@H](C(=O)Nc2cccc(Cl)c2F)C1=O [Compound 924] | 0% | 0% | 90% | 90% | 90% | 90% | 0% | 0% | 0% | 0% | 20% | 70% |  |  |  |  |  |  |  |  | pest or weed control at 125 g/ha ([7]; Postemergence, visual injury after approximately 10 d, 0 to 100 scale where 0 is no effect and 100 is complete control, read-out: Plant response rating, Galium): 0%; pest or weed control at 125 g/ha ([8]; Postemergence, visual injury after approximately 10 d, 0 to 100 scale where 0 is no effect and 100 is complete control, read-out: Plant response rating, Kochia): 0%; pest or weed control at 125 g/ha ([9]; Postemergence, visual injury after approximately 10 d, 0 to 100 scale where 0 is no effect and 100 is complete control, read-out: Plant response rating, Barnyardgrass): 90%; pest or weed control at 125 g/ha ([10]; Postemergence, visual injury after approximately 10 d, 0 to 100 scale where 0 is no effect and 100 is complete control, read-out: Plant response rating, Blackgrass): 0%; Corn plant response rating (crop injury, 0 = no effect, 100 = complete kill) at 125 g/ha ([11]; Postemergence, visual injury after approximately 10 d, 0 to 100 scale where 0 is no effect and 100 is complete control): 0%; pest or weed control at 125 g/ha ([12]; Postemergence, visual injury after approximately 10 d, 0 to 100 scale where 0 is no effect and 100 is complete control, read-out: Plant response rating, Pigweed): 0%; pest or weed control at 125 g/ha ([13]; Postemergence, visual injury after approximately 10 d, 0 to 100 scale where 0 is no effect and 100 is complete control, read-out: Plant response rating, Ragweed): 0%; pest or weed control at 125 g/ha ([14]; Postemergence, visual injury after approximately 10 d, 0 to 100 scale where 0 is no effect and 100 is complete control, read-out: Plant response rating, Ryegrass, Italian): 0%; plant injury at 125 g/ha ([15]; Postemergence, visual injury after approximately 10 d, 0 to 100 scale where 0 is no effect and 100 is complete control, read-out: Plant response rating, Wheat): 0% |
